Reference: patent publication US20250049035A1, “MICROBIOCIDAL BICYCLE HETEROCYCLIC DERIVATIVES” (SYNGENTA CROP PROTECTION AG, priority 2021, published 2025)

Columns and labels:
Format in all cases: cell-based
[1] = tested on: Mycosphaerella graminicola (Septoria tritici); experiment: Mycosphaerella graminicola (Septoria tritici) / liquid culture (Septoria blotch); conditions: Zymoseptoria tritici, liquid culture (potato dextrose broth), growth inhibition photometrically 4-5 days after application, compared to untreated control
Method in brief: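 Cryostored conidia in potato dextrose broth added to compound in DMSO, incubated at 24 °C. Growth inhibition read photometrically 4–5 days after application.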

[2] = tested on: Mycosphaerella arachidis (Cercospora arachidicola); experiment: Mycosphaerella arachidis (Cercospora arachidicola) / liquid culture (early leaf spot); conditions: liquid culture (potato dextrose broth), growth inhibition photometrically 4-5 days after application, compared to untreated control
Method in brief: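 Cryostored conidia mixed into potato dextrose broth and added to compound dispensed in DMSO. Plates held at 24 °C; growth inhibition assessed photometrically 4–5 days after application.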

[3] = tested on: Monographella nivalis (Microdochium nivale); experiment: Monographella nivalis (Microdochium nivale) / liquid culture (foot rot cereals); conditions: liquid culture (potato dextrose broth), growth inhibition photometrically 4-5 days after application, compared to untreated control
Method in brief: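 Cryostored conidia suspended in potato dextrose broth and added to compound dispensed from DMSO solution. Growth at 24 °C; inhibition read photometrically 4–5 days after application.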

[4] = tested on: Thanatephorus cucumeris (Rhizoctonia solani); experiment: Thanatephorus cucumeris (Rhizoctonia solani) / liquid culture (foot rot, damping-off); conditions: 20 ppm; liquid culture (potato dextrose broth), growth inhibition photometrically 3-4 days after application; compared to untreated control
Description: Example B13: Thanatephorus cucumeris (Rhizoctonia solani)/Liquid Culture (Foot Rot, Damping-Off) Mycelia fragments of a newly grown liquid culture of the fungus are directly mixed into a nutrient broth (potato dextrose broth). After placing a DMSO solution of the test compounds into a microtiter plate (96-well format), the nutrient broth containing the fungal material is added. The test plates are incubated at 24° C. and the inhibition of growth is determined photometrically 3-4 days after application.

SMILES: C[C@@H]1c2ccsc2[C@@](C)(c2cnn(C)c2)CN1C(=O)c1nnc(-c2ccc(F)cc2F)s1 (racemic) [Compound P-9, [5-(2,4-difluorophenyl)-1,3,4-thiadiazol-2-yl]-[rac-(4S,7R)-4,7-dimethyl-7-(1-methylpyrazol-4-yl)-4,6-dihydrothieno[3,2-c]pyridin-5-yl]methanone]
- inhibition of growth at 20 ppm [1]: ≥ 80%
- inhibition of growth at 20 ppm [2]: ≥ 80%
- inhibition of growth at 20 ppm [3]: ≥ 80%
- control of Thanatephorus cucumeris [4]: at least 80%
